Data reported in ChEMBL document CHEMBL1134487, “Design, synthesis, and biological evaluation of analogues of the antitumor agent, 2-(4-[(7-chloro-2-quinoxalinyl)oxy]phenoxy)propionic acid (XK469)” (2001).

How the values were obtained:
[1] = test system: Mus musculus; assay: In vivo activity tested against C3H mice bearing mammary adenocarcinoma -17/ADR tumor measured as % treated/control calculated at 620 mg/kg (po); format: functional
[2] = test system: Mus musculus; assay: Cytotoxicity against sc transplanted colon-26 tumors of mouse origin, activity expressed as log10 Kill at the dose of 300 mg/kg, iv; format: functional, organism-based; set-up: dose 300 mg/kg
[3] = test system: Mus musculus; assay: Cytotoxicity against sc transplanted L1210 tumors of mouse origin, activity expressed as cures at the dose of 332 mg/kg, iv; 0/5 cures; format: functional
[4] = test system: Mus musculus; assay: Cytotoxicity against iv transplanted AML1498 tumors of mouse origin, activity expressed as log10 Kill at the dose of 165 mg/kg, iv; format: functional, organism-based; set-up: dose 165 mg/kg
[5] = test system: Mus musculus; assay: Cytotoxicity against iv transplanted AML1498 tumors of mouse origin, activity expressed as %ILS at the dose of 165 mg/kg, iv; format: functional
[6] = test system: Mus musculus; assay: Cytotoxicity against sc transplanted Mam-16/C tumors of mouse origin, activity expressed as %T/C at the dose of 525 mg/kg, iv; format: functional
[7] = test system: Mus musculus; assay: Cytotoxicity against sc transplanted L1210 tumors of mouse origin, activity expressed as %body wt. loss at the dose of 332 mg/kg, iv; format: functional
[8] = test system: Mus musculus; assay: Cytotoxicity against sc transplanted Mam-16/C/Adr tumors of mouse origin, activity expressed as […] at the dose of 400 mg/kg, iv; 0/5 cures; format: functional
[9] = test system: Mus musculus; assay: Cytotoxicity against sc transplanted Mam-16/C/Taxol tumors of mouse origin, activity expressed as cures at the dose of 480 mg/kg, iv; 0/5 cures; format: functional
[10] = test system: Mus musculus; assay: Cytotoxicity against transplanted Panc-02 tumors of mouse origin, activity expressed as cures at the dose of 600 mg/kg, iv; 0/6 cures; format: functional
[11] = test system: Mus musculus; assay: Cytotoxicity against sc transplanted Mam-16/C/Adr tumors of mouse origin, activity expressed as T/C(%) at the dose of 400 mg/kg, iv; format: functional
[12] = test system: Mus musculus; assay: Cytotoxicity against sc transplanted Mam-16/C/Adr tumors of mouse origin, activity expressed as %body wt. loss at the dose of 400 mg/kg, iv; format: functional
[13] = test system: Mus musculus; assay: Cytotoxicity against sc transplanted DMS273 sm cell tumors of mouse and human origin, activity expressed as %body wt. loss at the dose of 175 mg/kg, iv; format: functional
[14] = test system: Mus musculus; assay: Cytotoxicity against sc transplanted Squam-lung-LC12 tumors of mouse origin, activity expressed as cures at the dose of 400 mg/kg, iv; 5/5 cures; format: functional
[15] = test system: Mus musculus; assay: In vivo activity tested against C3H mice bearing panc-03 murine tumor measured as log Kill value was based on tumors that grew at 328 mg/kg (po); format: functional, organism-based; set-up: dose 328 mg/kg
[16] = test system: Mus musculus; assay: Cytotoxicity against sc transplanted Mam-17/0 tumors of mouse origin, activity expressed as cures at the dose of 620 mg/kg, iv;p 0/5 cures; format: functional
[17] = test system: Mus musculus; assay: Cytotoxicity against sc transplanted Squam-lung-LC12 tumors of mouse origin, activity expressed as log kill at the dose of 400 mg/kg, iv; All cures; format: functional, organism-based; set-up: dose 400 mg/kg
[18] = test system: Mus musculus; assay: Cytotoxicity against sc transplanted Mam-16/C tumors of mouse origin, activity expressed as %body wt loss at the dose of 525 mg/kg, iv; format: functional
[19] = test system: Mus musculus; assay: Cytotoxicity against sc transplanted Panc-03 tumors of mouse origin, activity expressed as cures at the dose of 328 mg/kg, po; 4/6 cures; format: functional
[20] = test system: Mus musculus; assay: Cytotoxicity against sc transplanted Mam-17/Adr tumors of mouse origin, activity expressed as cures at the dose of 620 mg/kg, iv; 0/5 cures; format: functional
[21] = test system: Mus musculus; assay: Cytotoxicity against sc transplanted colon-26 tumors of mouse origin, activity expressed as %body wt. loss at the dose of 300 mg/kg, iv; format: functional
[22] = test system: Mus musculus; assay: Cytotoxicity against sc transplanted B-16 melanoma tumors of mouse origin, activity expressed as log10 Kill at the dose of 300 mg/kg, iv; format: functional, organism-based; set-up: dose 300 mg/kg
[23] = test system: Mus musculus; assay: In vivo activity tested against C3H mice bearing panc-03 murine tumor measured as activity rating at 328 mg/kg (po); format: functional
[24] = test system: Mus musculus; assay: In vivo activity tested against C3H mice bearing mammary adenocarcinoma -17/ADR tumor measured as activity rating at 620 mg/kg (po); format: functional
[25] = test system: Mus musculus; assay: Cytotoxicity against sc transplanted Squam-lung-LC12 tumors of mouse, activity expressed as %body wt loss at the dose of 400 mg/kg, iv; format: functional
[26] = test system: Mus musculus; assay: Cytotoxicity against sc transplanted colon-38 tumors of mouse origin, activity expressed as %body wt lose at the dose of 546 mg/kg, iv; format: functional
[27] = test system: Mus musculus; assay: In vivo activity tested against C3H mice bearing panc-03 murine tumor, measured as cures at 328 mg/kg (po); 4/6 cures; format: functional
[28] = test system: Mus musculus; assay: Cytotoxicity against sc transplanted Mam-17/0 tumors of mouse origin, activity expressed as T/C(%) at the dose of 620 mg/kg, iv; format: functional
[29] = test system: Mus musculus; assay: Cytotoxicity against sc transplanted colon-51 tumors of mouse origin, activity expressed as log10 Kill at the dose of 980 mg/kg, po; format: functional, organism-based; set-up: dose 980 mg/kg
[30] = test system: Mus musculus; assay: Cytotoxicity against sc transplanted Panc-03 tumors of mouse […] origin, activity expressed as %body wt loss at the dose of 328 mg/kg, po; format: functional
[31] = test system: Mus musculus; assay: Cytotoxicity against sc transplanted Mam-16/C tumors of mouse origin, activity expressed as log kill at the dose of 525 mg/kg, iv; format: functional, organism-based; set-up: dose 525 mg/kg
[32] = test system: Mus musculus; assay: Cytotoxicity against sc transplanted Panc-02 tumors of mouse origin, activity expressed as %body wt. loss at the dose of 600 mg/kg, iv; format: functional
[33] = test system: Mus musculus; assay: Cytotoxicity against sc transplanted Mam-17/Adr tumors of mouse origin, activity expressed as %body wt. loss at the dose of 620 mg/kg, iv; format: functional
[34] = test system: Mus musculus; assay: Cytotoxicity against sc transplanted Mam-17/Adr tumors of mouse origin, activity expressed as log10 Kill at the dose of 620 mg/kg, iv; format: functional, organism-based; set-up: dose 620 mg/kg
[35] = test system: Mus musculus; assay: Cytotoxicity against sc transplanted Panc-03 tumors of mouse origin, activity expressed as %T/C at the dose of 328 mg/kg, po; format: functional
[36] = test system: Mus musculus; assay: Cytotoxicity against sc transplanted colon-51 tumors of mouse origin, activity expressed as %body wt. loss at the dose of 980 mg/kg, po; format: functional
[37] = test system: Mus musculus; assay: Cytotoxicity against sc transplanted Mam-16/C/Adr tumors of mouse origin, activity expressed as […] at the dose of 400 mg/kg, iv; format: functional, organism-based; set-up: dose 400 mg/kg
[38] = test system: Mus musculus; assay: Cytotoxicity against iv transplanted L1210 tumors of mouse origin, activity expressed as log10 Kill at the dose of 300 mg/kg, iv; format: functional, organism-based; set-up: dose 300 mg/kg
[39] = test system: Mus musculus; assay: Cytotoxicity against sc transplanted DMS273 sm cell tumors of mouse and human origin, activity expressed as log10 Kill at the dose of 175 mg/kg, iv; format: functional, organism-based; set-up: dose 175 mg/kg
[40] = test system: Mus musculus; assay: Cytotoxicity against sc transplanted Mam-16/C/Taxol tumors of mouse origin, activity expressed as %T/C at the dose of 480 mg/kg, iv; format: functional
[41] = test system: Mus musculus; assay: Cytotoxicity against sc transplanted colon-51 tumors of mouse origin, activity expressed as T/C(%) at the dose of 980 mg/kg, po; format: functional

CC(Oc1ccc(Oc2cnc3ccc(Cl)cc3n2)cc1)C(=O)O (stereo unspecified)
T/C [1]: 2% | Log kill [2]: 1.3 | Cures [3]: 0 | Log kill [4]: 2 | ILS at 165 mg/kg [5]: 30% | T/C [6]: 0% | Body weight loss [7]: -16% | Cures [8]: 0 | Cures [9]: 0 | Cures [10]: 0 | T/C [11]: 0% | Body weight loss [12]: -9% | Body weight loss [13]: -8% | Cures [14]: 5 | Log kill [15]: 2.1 | Cures [16]: 0 | Log kill [17]: All cures | Body weight loss [18]: -9% | Cures [19]: 4 | Cures [20]: 0 | Body weight loss [21]: -12% | Log kill [22]: 2.6 | Activity rating [23]: >2.8 | Activity rating [24]: >2.8 | Body weight loss [25]: -3% | Body weight loss [26]: -3.5% | Cures [27]: 4 | T/C [28]: 10% | Log kill [29]: 2.7 | Body weight loss [30]: -4% | Log kill [31]: 5.2 | Body weight loss [32]: -3% | Body weight loss [33]: -4% | Log kill [34]: 3.9 | T/C [35]: 0% | Body weight loss [36]: -5% | Log kill [37]: 4.1 | Log kill [38]: 6.4 | Log kill [39]: 1.6 | T/C [40]: 14% | T/C [41]: 0%
